Assay results published in ChEMBL document CHEMBL3864160, “Discovery of fluorobenzimidazole HCV NS5A inhibitors” (Bioorg Med Chem Lett, 2016).

Tests used:
[1] = Half life in CD1 mouse at 3 mg/kg, po after 0.25 to 24 hrs; format: ADME, organism-based; details: in vivo
[2] = AUC in CD1 mouse at 15 mg/kg, po after 0.25 to 24 hrs; format: ADME, organism-based; set-up: time lower 0.25 hr, dose 15 mg/kg, time upper 24 hr, route oral; details: in vivo
[3] = Half life in CD1 mouse at 15 mg/kg, po after 0.25 to 24 hrs; format: ADME, organism-based; details: in vivo
[4] = Cmax in CD1 mouse at 15 mg/kg, po after 0.25 to 24 hrs; format: ADME, organism-based; set-up: dose 15 mg/kg, route oral; details: in vivo
[5] = AUC in CD1 mouse at 3 mg/kg, po after 0.25 to 24 hrs; format: ADME, organism-based; set-up: time upper 24 hr, dose 3 mg/kg, time lower 0.25 hr, route oral; details: in vivo
[6] = Cmax in CD1 mouse at 3 mg/kg, po after 0.25 to 24 hrs; format: ADME, organism-based; set-up: dose 3 mg/kg, route oral; details: in vivo
[7] = Plasma clearance in CD1 mouse at 3 mg/kg, iv after 0.1 to 24 hrs; format: ADME, organism-based
[8] = Half life in CD1 mouse at 3 mg/kg, iv after 0.1 to 24 hrs; format: ADME, organism-based; details: in vivo
[9] = Oral bioavailability in CD1 mouse at 3 mg/kg after 0.25 to 24 hrs; format: ADME, organism-based; details: in vivo
[10] = Inhibition of Hepatitis C virus genotype 1a H77 replicon NS5A transfected in human HuH7 cells assessed as decrease in replication of viral replicon in presence of 40% human plasma after 4 days by luciferase reporter gene assay; format: cell-based, Hepatitis C virus (isolate H77); details: Huh-7, Plasma, 96 h
[11] = Inhibition of Hepatitis C virus genotype 2a replicon NS5A transfected in human HuH7 cells assessed as decrease in replication of viral replicon after 4 days by luciferase reporter gene assay; format: cell-based, Hepatitis C virus subtype 2a; details: Huh-7, 96 h
[12] = Inhibition of Hepatitis C virus genotype 1a H77 replicon NS5A transfected in human HuH7 cells assessed as decrease in replication of viral replicon after 4 days by luciferase reporter gene assay; format: cell-based, Hepatitis C virus (isolate H77); details: Huh-7, 96 h
[13] = Inhibition of Hepatitis C virus genotype 1b Con1 replicon NS5A transfected in human HuH7 cells assessed as decrease in replication of viral replicon after 4 days by luciferase reporter gene assay; format: cell-based, Hepatitis C virus (isolate Con1); details: Huh-7, 96 h
[14] = Inhibition of Hepatitis C virus genotype 2b replicon NS5A transfected in human HuH7 cells assessed as decrease in replication of viral replicon after 4 days by luciferase reporter gene assay; format: cell-based, Hepatitis C virus subtype 2b; details: Huh-7, 96 h
[15] = Inhibition of Hepatitis C virus genotype 4a replicon NS5A transfected in human HuH7 cells assessed as decrease in replication of viral replicon after 4 days by luciferase reporter gene assay; format: cell-based, Hepatitis C virus subtype 4a; details: Huh-7, 96 h
[16] = Inhibition of Hepatitis C virus genotype 6a replicon NS5A transfected in human HuH7 cells assessed as decrease in replication of viral replicon after 4 days by luciferase reporter gene assay; format: cell-based, Hepatitis C virus subtype 6a; details: Huh-7, 96 h
[17] = Inhibition of Hepatitis C virus genotype 1b Con1 replicon NS5A transfected in human HuH7 cells assessed as decrease in replication of viral replicon in presence of 40% human plasma after 4 days by luciferase reporter gene assay; format: cell-based, Hepatitis C virus (isolate Con1); details: Huh-7, Plasma, 96 h
[18] = Inhibition of Hepatitis C virus genotype 3a replicon NS5A transfected in human HuH7 cells assessed as decrease in replication of viral replicon after 4 days by luciferase reporter gene assay; format: cell-based, Hepatitis C virus subtype 3a; details: Huh-7, 96 h
[19] = Inhibition of Hepatitis C virus genotype 1a H77 replicon NS5A Q30R mutant transfected in human HuH7 cells assessed as decrease in replication of viral replicon after 4 days by luciferase reporter gene assay; format: cell-based, Hepatitis C virus (isolate H77); details: Huh-7, 96 h
[20] = test system: Hepatitis C virus (isolate Con1); assay: Ratio of EC50 for Hepatitis C virus genotype 1b Con1 replicon NS5A in presence of 40% human plasma to EC50 for Hepatitis C virus genotype 1b Con1 replicon NS5A in absence of 40% human plasma
[21] = test system: Hepatitis C virus (isolate H77); assay: Resistance ratio of EC50 for Hepatitis C virus genotype 1a H77 replicon NS5A Y93C mutant to EC50 for Hepatitis C virus genotype 1a H77 replicon NS5A
[22] = Inhibition of Hepatitis C virus genotype 1a H77 replicon NS5A M28T mutant transfected in human HuH7 cells assessed as decrease in replication of viral replicon after 4 days by luciferase reporter gene assay; format: cell-based, Hepatitis C virus (isolate H77); details: Huh-7, 96 h
[23] = test system: Hepatitis C virus (isolate H77); assay: Resistance ratio of EC50 for Hepatitis C virus genotype 1a H77 replicon NS5A Y93H mutant to EC50 for Hepatitis C virus genotype 1a H77 replicon NS5A
[24] = test system: Hepatitis C virus (isolate H77); assay: Resistance ratio of EC50 for Hepatitis C virus genotype 1a H77 replicon NS5A M28T mutant to EC50 for Hepatitis C virus genotype 1a H77 replicon NS5A
[25] = test system: Hepatitis C virus (isolate H77); assay: Ratio of EC50 for Hepatitis C virus genotype 1a H77 replicon NS5A in presence of 40% human plasma to EC50 for Hepatitis C virus genotype 1a H77 replicon NS5A in absence of 40% human plasma
[26] = test system: Hepatitis C virus (isolate H77); assay: Resistance ratio of EC50 for Hepatitis C virus genotype 1a H77 replicon NS5A Q30R mutant to EC50 for Hepatitis C virus genotype 1a H77 replicon NS5A

In the case of `COC(=O)N[C@H](C(=O)N1CCC[C@H]1c1nc2cc([C@H]3CC[C@H](c4cc5[nH]c([C@@H]6CCCN6C(=O)[C@@H](NC(=O)OC)C(C)C)nc5cc4F)N3c3ccc(C(C)(C)C)cc3)c(F)cc2[nH]1)C(C)C`, the half-life [1] is reported as 4.4 h, the AUC [2] is reported as 36200 ng·h/mL and the half-life [3] is reported as 4.8 h. It also gave a Cmax [4] of 3180 ng/mL, an AUC [5] of 5790 ng·h/mL and a Cmax [6] of 630 ng/mL.
In the case of `COC(=O)N[C@H](C(=O)N1CCC[C@H]1C(=O)Nc1ccc([C@H]2CC[C@@H](c3ccc(NC(=O)[C@@H]4CCCN4C(=O)[C@@H](NC(=O)OC)C(C)C)cc3)N2c2ccc(C(C)(C)C)cc2)cc1)C(C)C`, the clearance [7] is reported as 1.83 mL/min/kg, the half-life [8] is reported as 11 h and the AUC [5] is reported as 11000 ng·h/mL. The bioavailability [9] was 42% and the Cmax [6] was 570 ng/mL.
Work on `COC(=O)N[C@H](C(=O)N1CCC[C@H]1c1nc2c(F)c([C@H]3CC[C@H](c4ccc5[nH]c([C@@H]6CCCN6C(=O)[C@@H](NC(=O)OC)C(C)C)nc5c4F)N3c3ccc(C(C)(C)C)cc3)ccc2[nH]1)C(C)C` yielded an EC50 [10] of 823 pM, an EC50 [11] of 612 pM and an EC50 [12] of 22 pM. For the same compound, the EC50 [13] was 10 pM, the EC50 [14] was 9 pM and the EC50 [15] was 7 pM. It also gave an EC50 [16] of 114 pM, an EC50 [17] of 211 pM and an EC50 [18] of 20 pM.
`COC(=O)N[C@H](C(=O)N1CCC[C@H]1c1nc2cc(-c3ccc(-c4cc5nc([C@@H]6CCCN6C(=O)[C@@H](NC(=O)OC)C(C)C)[nH]c5cc4OC)cc3)c(OC)cc2[nH]1)C(C)C` showed an EC50 [11] of over 100000 pM, an EC50 [12] of 25500 pM and an EC50 [13] of 93 pM. It also gave an EC50 [14] of 88600 pM, an EC50 [15] of 548 pM and an EC50 [16] of over 100000 pM. For the same compound, the EC50 [18] was over 100000 pM.
Work on `COC(=O)N[C@H](C(=O)N1CCC[C@H]1c1nc2cc(-c3ccc(-c4cc5nc([C@@H]6CCCN6C(=O)[C@@H](NC(=O)OC)C(C)C)[nH]c5cc4C(F)(F)F)cc3)c(C(F)(F)F)cc2[nH]1)C(C)C` yielded an EC50 [11] of 49600 pM, an EC50 [12] of 12000 pM and an EC50 [13] of 6 pM. It also gave an EC50 [14] of 4490 pM, an EC50 [15] of 49 pM and an EC50 [16] of 21500 pM. The EC50 [18] was 43400 pM.
`COC(=O)N[C@H](C(=O)N1CCC[C@H]1c1nc2cc([C@H]3CC[C@H](c4cc5nc([C@@H]6CCCN6C(=O)[C@@H](NC(=O)OC)C(C)C)[nH]c5cc4F)N3c3ccc(C(C)(C)C)cc3)c(F)cc2[nH]1)C(C)C` gave an EC50 [10] of 216 pM, an EC50 [11] of 98 pM and an EC50 [19] of 5 pM. It also gave an EC50 [12] of 2 to 8 pM, a Ratio EC50 [20] of 15 to 30 and a Ratio EC50 [21] of 3. It also gave an EC50 [13] of 7 pM, an EC50 [14] of 9 pM and an EC50 [22] of 4 pM. For the same compound, the EC50 [15] was 8 pM, the Ratio EC50 [23] was 30 and the EC50 [16] was 15 pM. For the same compound, the Ratio EC50 [24] was 2, the Ratio EC50 [25] was 15 to 30 and the EC50 [17] was 96 pM. The Ratio EC50 [26] was 3 and the EC50 [18] was 8 pM.
For `COC(=O)N[C@H](C(=O)N1CCC[C@H]1c1nc2cc(-c3ccc(-c4cc(OC)c5[nH]c([C@@H]6CCCN6C(=O)[C@@H](NC(=O)OC)C(C)C)nc5c4)cc3)cc(OC)c2[nH]1)C(C)C`, the EC50 [11] was over 100000 pM, the EC50 [12] was 628 pM and the EC50 [13] was 95 pM. For the same compound, the EC50 [14] was 56800 pM, the EC50 [15] was 162 pM and the EC50 [16] was over 100000 pM. For the same compound, the EC50 [18] was 92400 pM.
